In brackets after ≈: the same amount, converted by molar mass.
Experiments:
Assay in all cases: Microtitre plate assay, IC90 determination
Assay type in all cases: cell-based
[1] = system: PAE 27853 (Pseudomonas aeruginosa (ATCC27853)); settings: for IC90 (μg/ml) PAE 27853: Pseudomonas aeruginosa (ATCC27853); for IC90: Pseudomonas aeruginosa, ATCC27853, Pseudomonas aeruginosa (ATCC27853), read-out: IC90 (μg/ml) PAE 27853
[2] = system: SPN 6305 (Streptococcus pneumoniae (ATCC6305)); settings: for IC90 (μg/ml) SPN 6305: Streptococcus pneumoniae (ATCC6305); for IC90: Streptococcus pneumoniae, ATCC6305, Streptococcus pneumoniae (ATCC6305), read-out: IC90 (μg/ml) SPN 6305
Summary of the method: (§1)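 Growth-inhibition endpoint: resazurin added 3 h after inoculation, plates incubated overnight, fluorescence at 530/590 nm after 24 h at 37 °C. Inocula of roughly 10–60 CFU per well in Mueller-Hinton medium; compounds titrated five-fold. IC90 reported as μg/ml.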

[3] = system: STA 29213 (Staphylococcus aureus (ATCC29213)); settings: for IC90 (μg/ml) STA 29213: Staphylococcus aureus (ATCC29213); for IC90: Staphylococcus aureus, ATCC29213, Staphylococcus aureus (ATCC29213), read-out: IC90 (μg/ml) STA 29213
Summary of the method: as §1

[4] = system: EFA 29212 (Enterococcus faecalis (ATCC29212)); settings: for IC90 (μg/ml) EFA 29212: Enterococcus faecalis (ATCC29212); for IC90: Enterococcus faecalis, ATCC29212, Enterococcus faecalis (ATCC29212), read-out: IC90 (μg/ml) EFA 29212
[5] = system: SPY 8668 (Streptococcus pyogens (ATCC8668)); settings: for IC90 (μg/ml) SPY 8668: Streptococcus pyogens (ATCC8668); for IC90: Streptococcus, ATCC8668, Streptococcus pyogens (ATCC8668), read-out: IC90 (μg/ml) SPY 8668
[6] = system: STA RMETH (methicilline resistant Staphylococcus aureus (MRSA), a clinical isolate from the University of Antwerp); settings: for IC90: Staphylococcus aureus, MRSA, read-out: IC90 (μg/ml) STA RMETH

IC90 (μg/ml) PAE 27853 [1]	IC90 (μg/ml) SPN 6305 [2]	IC90 (μg/ml) STA 29213 [3]	IC90 (μg/ml) EFA 29212 [4]	IC90 (μg/ml) SPY 8668 [5]	IC90 [6]	IC90 [2]	IC90 [1]	IC90 [4]	IC90 [5]	IC90 [3]	Structure (SMILES)	IC90 (μg/ml) STA RMETH [6]
	2.34 µg/mL (≈ 3.55 µM)			10.46 µg/mL (≈ 15.9 µM)							COc1nc2ccc(Br)cc2cc1C(c1ccccc1)C(O)(CCCCN(C)Cc1ccccc1)c1ccc2ccccc2c1 (racemic) [Compound 76]	
2.02 µg/mL (≈ 3.17 µM)	1.8 µg/mL (≈ 2.82 µM)	10.11 µg/mL (≈ 15.9 µM)	10.11 µg/mL (≈ 15.9 µM)	2.02 µg/mL (≈ 3.17 µM)							COc1nc2ccc(Br)cc2cc1C(c1ccccc1)C(O)(CCCCN1CCC(C)CC1)c1ccc2ccccc2c1 (racemic) [Compound 102]	
3.58 µg/mL (≈ 6.31 µM)	2.26 µg/mL (≈ 3.98 µM)	1.79 µg/mL (≈ 3.15 µM)	9 µg/mL (≈ 15.9 µM)	9 µg/mL (≈ 15.9 µM)							COc1nc2ccc(Br)cc2cc1C(c1ccccc1)C(O)(CCCCN1CCCCC1)CCC(C)C (single isomer, unassigned) [Compound 124]	
1.82 µg/mL (≈ 3.16 µM)	2.29 µg/mL (≈ 3.98 µM)	9.12 µg/mL (≈ 15.8 µM)	1.82 µg/mL (≈ 3.16 µM)	1.82 µg/mL (≈ 3.16 µM)							COc1nc2ccc(Br)cc2cc1C(c1ccccc1)C(O)(CCCCN(C)C)CCCc1ccccc1 (single isomer, unassigned) [Compound 144]	
9.12 µg/mL (≈ 15.8 µM)	2.29 µg/mL (≈ 3.98 µM)	5.76 µg/mL (≈ 10 µM)	9.12 µg/mL (≈ 15.8 µM)	5.13 µg/mL (≈ 8.91 µM)							COc1nc2ccc(Br)cc2cc1C(c1ccccc1)C(O)(CCCCN(C)C)CCCc1ccccc1 (single isomer, unassigned) [Compound 145]	
38.3 µg/mL (≈ 79.4 µM)	1.5 µg/mL (≈ 3.11 µM)	7.7 µg/mL (≈ 16 µM)	38.3 µg/mL (≈ 79.4 µM)	38.3 µg/mL (≈ 79.4 µM)							COc1nc2ccc(C)cc2cc1C(c1ccccc1)C(O)(CCCCCN(C)C)c1ccccc1 (single isomer, unassigned) [Compound 152]	
8.68 µg/mL (≈ 15.9 µM)	1.75 µg/mL (≈ 3.2 µM)	1.75 µg/mL (≈ 3.2 µM)		8.68 µg/mL (≈ 15.9 µM)							COc1nc2ccc(Br)cc2cc1C(c1ccccc1)C(O)(CCCCCN(C)C)c1ccccc1 (single isomer, unassigned) [Compound 154]	
0.87 µg/mL (≈ 1.42 µM)	1.22 µg/mL (≈ 1.99 µM)	0.4 µg/mL (≈ 0.652 µM)	1.94 µg/mL (≈ 3.16 µM)	0.87 µg/mL (≈ 1.42 µM)							COc1ccc(C(c2cc3cc(Br)ccc3nc2OC)C(O)(CCCCN(C)C)c2ccc3ccccc3c2)cc1 (single isomer, unassigned) [Compound 158]	
1.85 µg/mL (≈ 3.17 µM)	0.41 µg/mL (≈ 0.703 µM)	1.85 µg/mL (≈ 3.17 µM)	1.85 µg/mL (≈ 3.17 µM)	1.47 µg/mL (≈ 2.52 µM)							COc1nc2ccccc2cc1C(c1cccc(Br)c1)C(O)(CCCCN(C)C)c1ccc2ccccc2c1 (single isomer, unassigned) [Compound 159]	
1.95 µg/mL (≈ 3.16 µM)	2.46 µg/mL (≈ 3.98 µM)	2.19 µg/mL (≈ 3.55 µM)	1.95 µg/mL (≈ 3.16 µM)	1.95 µg/mL (≈ 3.16 µM)							COc1ccc(C(O)(CCCCN2CCCCC2)C(c2ccc(C)cc2)c2cc3cc(Br)ccc3nc2OC)cc1 (single isomer, unassigned) [Compound 168]	
9.64 µg/mL (≈ 15.9 µM)	9.64 µg/mL (≈ 15.9 µM)	21.57 µg/mL (≈ 35.5 µM)	9.64 µg/mL (≈ 15.9 µM)	9.64 µg/mL (≈ 15.9 µM)							COc1nc2ccc(Br)cc2cc1C(c1ccc(Cl)cc1)C(O)(CCCCN1CCCCC1)c1ccccc1 (single isomer, unassigned) [Compound 170]	
2.03 µg/mL (≈ 3.16 µM)	0.91 µg/mL (≈ 1.42 µM)	2.03 µg/mL (≈ 3.16 µM)	2.03 µg/mL (≈ 3.16 µM)	0.91 µg/mL (≈ 1.42 µM)							COc1nc2ccc(Br)cc2cc1C(c1ccc(Cl)c(Cl)c1)C(O)(CCCCN1CCCCC1)c1ccccc1 (single isomer, unassigned) [Compound 173]	
	1.8 µg/mL (≈ 3.57 µM)	2.0 µg/mL (≈ 3.96 µM)			10.1 µg/mL (≈ 20 µM)						COc1nc2ccccc2cc1C(c1ccccc1)C(O)(CCCCN(C)C)c1ccc2ccccc2c1 (stereo not drawn) [Compound 37]	
	3.6 µg/mL (≈ 6.31 µM)	2.0 µg/mL (≈ 3.5 µM)			4.5 µg/mL (≈ 7.88 µM)						COc1nc2ccc(-c3ccco3)cc2cc1C(c1ccccc1)C(O)(CCCCN(C)C)c1ccc2ccccc2c1 (stereo not drawn) [Compound 39]	
		1.84 µg/mL (≈ 3.17 µM)				2.31 µg/mL (≈ 3.98 µM)					COc1nc2ccccc2cc1C(c1ccc(-c2ccccc2)cc1)C(O)(CCCCN(C)C)c1ccc2ccccc2c1 (stereo not drawn) [Compound 56]	5.81 µg/mL (≈ 10 µM)
	2.31 µg/mL (≈ 3.98 µM)	4.11 µg/mL (≈ 7.08 µM)									COc1nc2ccccc2cc1C(c1ccc(-c2ccccc2)cc1)C(O)(CCCCN(C)C)c1ccc2ccccc2c1 (stereo not drawn) [Compound 57]	2.59 µg/mL (≈ 4.46 µM)
	0.84 µg/mL (≈ 1.41 µM)	0.8 µg/mL (≈ 1.34 µM)					1.89 µg/mL (≈ 3.16 µM)	1.89 µg/mL (≈ 3.16 µM)	2.12 µg/mL (≈ 3.55 µM)		COc1nc2ccc(Br)cc2cc1C(c1ccccc1)C(O)(CCCCCN(C)C)c1ccc2ccccc2c1 (stereo not drawn) [Compound 59]	
	1.85 µg/mL (≈ 3.17 µM)	1.85 µg/mL (≈ 3.17 µM)					0.46 µg/mL (≈ 0.788 µM)	1.85 µg/mL (≈ 3.17 µM)	1.85 µg/mL (≈ 3.17 µM)		COc1nc2ccccc2cc1C(c1ccc(Br)cc1)C(O)(CCCCN(C)C)c1ccc2ccccc2c1 (stereo not drawn) [Compound 64]	
		1.7 µg/mL (≈ 3.25 µM)		6.59 µg/mL (≈ 12.6 µM)		1.65 µg/mL (≈ 3.15 µM)	7.39 µg/mL (≈ 14.1 µM)	9.3 µg/mL (≈ 17.8 µM)			CNCCCC(O)(c1ccc(F)cc1)C(c1ccccc1)c1cc2cc(Br)ccc2nc1OC (stereo not drawn) [Compound 69]	
					2.55 µg/mL (≈ 3.99 µM)	2.55 µg/mL (≈ 3.99 µM)				2.02 µg/mL (≈ 3.16 µM)	CCN(CC)CCCCC(O)(CCc1cccc2ccccc12)C(c1ccccc1)c1cc2cc(Br)ccc2nc1OC (stereo not drawn) [Compound 73]	
1.98 µg/mL (≈ 3.17 µM)	1.98 µg/mL (≈ 3.17 µM)	1.98 µg/mL (≈ 3.17 µM)	1.98 µg/mL (≈ 3.17 µM)	1.98 µg/mL (≈ 3.17 µM)							COc1nc2ccc(Br)cc2cc1C(c1ccccc1)C(O)(CCCCN1CCNCC1)c1ccc2ccccc2c1 (stereo not drawn) [Compound 106]	
	0.39 µg/mL (≈ 0.624 µM)						1.98 µg/mL (≈ 3.17 µM)	1.98 µg/mL (≈ 3.17 µM)	1.98 µg/mL (≈ 3.17 µM)	1.98 µg/mL (≈ 3.17 µM)	COc1nc2ccc(Br)cc2cc1C(c1ccccc1)C(O)(CCCCN1CCNCC1)c1ccc2ccccc2c1 (stereo not drawn) [Compound 107]	

Structure (SMILES)	IC90 (μg/ml) PAE 27853 [1]	IC90 (μg/ml) SPN 6305 [2]	IC90 (μg/ml) STA 29213 [3]	IC90 (μg/ml) EFA 29212 [4]	IC90 (μg/ml) SPY 8668 [5]	IC90 [6]	IC90 [2]	IC90 [1]	IC90 [4]	IC90 [5]	IC90 [3]	IC90 (μg/ml) STA RMETH [6]
CNCCCCC(O)(c1ccc2ccccc2c1)C(c1ccccc1)c1cc2cc(Br)ccc2nc1OC (racemic) [Compound 74]	10.13 µg/mL (≈ 17.8 µM)	0.9 µg/mL (≈ 1.58 µM)	11.36 µg/mL (≈ 19.9 µM)	9.03 µg/mL (≈ 15.9 µM)	9.03 µg/mL (≈ 15.9 µM)							
CNCCCCC(O)(c1ccc2ccccc2c1)C(c1ccccc1)c1cc2cc(Br)ccc2nc1OC (racemic) [Compound 75]	2.02 µg/mL (≈ 3.55 µM)	0.9 µg/mL (≈ 1.58 µM)	2.02 µg/mL (≈ 3.55 µM)	4.03 µg/mL (≈ 7.08 µM)	1.8 µg/mL (≈ 3.16 µM)							11.36 µg/mL (≈ 19.9 µM)
COc1nc2c(C)c(Br)ccc2cc1C(c1ccccc1)C(O)(CCCCN(C)C)c1ccc2ccccc2c1 (racemic) [Compound 81]	9.47 µg/mL (≈ 15.8 µM)	4.75 µg/mL (≈ 7.95 µM)	9.47 µg/mL (≈ 15.8 µM)	1.89 µg/mL (≈ 3.16 µM)	1.89 µg/mL (≈ 3.16 µM)							
COc1nc2ccc(Br)cc2cc1C(c1ccccc1)C(O)(CCCCN(C)C(C)C)c1ccccc1 (single isomer, unassigned) [Compound 89]	11.2 µg/mL (≈ 19.9 µM)	2.24 µg/mL (≈ 3.99 µM)	11.2 µg/mL (≈ 19.9 µM)	11.2 µg/mL (≈ 19.9 µM)	8.9 µg/mL (≈ 15.8 µM)							
COc1nc2ccc(Br)cc2cc1C(c1ccccc1)C(O)(CCCCN1CCN(C)CC1)c1ccc2ccccc2c1 (single isomer, unassigned) [Compound 112]	2.02 µg/mL (≈ 3.16 µM)	2.54 µg/mL (≈ 3.98 µM)	2.02 µg/mL (≈ 3.16 µM)	2.02 µg/mL (≈ 3.16 µM)	2.02 µg/mL (≈ 3.16 µM)							2.54 µg/mL (≈ 3.98 µM)
COc1nc2ccc(Br)cc2cc1C(c1ccccc1)C(O)(CCCCN1CCN(C)CC1)CCc1ccccc1 (single isomer, unassigned) [Compound 137]	9.77 µg/mL (≈ 15.8 µM)	1.95 µg/mL (≈ 3.16 µM)	1.95 µg/mL (≈ 3.16 µM)	9.77 µg/mL (≈ 15.8 µM)	1.95 µg/mL (≈ 3.16 µM)							12.3 µg/mL (≈ 19.9 µM)
